Where two headings read alike, the source gives them in different places.
Legend:
[1] = tested on: SJSA-1 cells (p53 wild-type, MDM2 amplified osteosarcoma); test: Protocol A: SJSA-1 growth inhibition (sulphorhodamine B); settings: read-out: SJSA-1 IC50 (μM) (Protocol A); SJSA-1, Protocol A
MDM2-p53 interaction = MDM2-p53 interaction (Homo sapiens (Human), UniProt Q00987); settings: for inhibition at 0.001 µM: read-out: MDM2 % inhibition @0.0010; for inhibition at 0.1 µM: read-out: MDM2 % inhibition @0.10; for inhibition at 0.03 µM: read-out: MDM2 % inhibition @0.030
MDM2-p53 interaction, sequence (Q00987 whole entry): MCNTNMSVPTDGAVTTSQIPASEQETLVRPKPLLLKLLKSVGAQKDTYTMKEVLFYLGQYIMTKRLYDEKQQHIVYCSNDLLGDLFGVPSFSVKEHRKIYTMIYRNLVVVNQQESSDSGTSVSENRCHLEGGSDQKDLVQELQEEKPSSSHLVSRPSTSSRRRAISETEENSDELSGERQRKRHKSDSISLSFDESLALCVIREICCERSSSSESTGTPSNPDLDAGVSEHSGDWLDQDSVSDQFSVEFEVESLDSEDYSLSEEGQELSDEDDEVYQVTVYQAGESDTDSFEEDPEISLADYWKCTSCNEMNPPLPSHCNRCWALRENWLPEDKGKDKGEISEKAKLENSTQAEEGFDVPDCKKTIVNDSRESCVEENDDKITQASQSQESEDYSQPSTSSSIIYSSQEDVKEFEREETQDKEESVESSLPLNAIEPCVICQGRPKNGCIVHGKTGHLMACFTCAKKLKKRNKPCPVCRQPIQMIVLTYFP

SN40R2 cells = test: Protocol B: SN40R2 CellTiter-Glo luminescent cell viability assay
[2] = tested on: SN40R2 cells (p53 mutated, MDM2 amplified osteosarcoma); test: Protocol A: SN40R2 growth inhibition (sulphorhodamine B); settings: for inhibition at 50 µM: read-out: SN40R2 % inhibition at 50
SJSA-1 cells = test: Protocol B: SJSA-1 CellTiter-Glo luminescent cell viability assay
[3] = read-out: SN40R2 % inhibition at 10, Protocol B, SN40R2, at 10 μM
[4] = read-out: SJSA1 IC50, Protocol B, SJSA-1
[5] = Homo sapiens, SJSA-1, read-out: SJSA1 IC50 (μM), Protocol B, SJSA-1
[6] = read-out: SN40R2 % inhibition at 10

SMILES | inhibition at 0.001 µM (MDM2-p53 interaction) [%] | IC50 (SJSA-1 cells; [4]) [µM] | inhibition at 10 µM (SN40R2 cells; [3]) [%] | inhibition at 50 µM [2] [%] | also measured
CO[C@]1(c2ccc(Cl)cc2)c2ccc(C(C)(O)CN3CCNC3=O)cc2C(=O)N1Cc1ccc(Cl)cn1 (single isomer, unassigned) [Example 158] |  |  |  |  | IC50 [1]: 1.2 µM; MDM2 % at stated concentration (MDM2-p53 interaction; at 0.10 μM): 57%@0.10
CO[C@]1(c2ccc(Cl)cc2)c2ccc(C(C)(O)CN3CCOCC3=O)cc2C(=O)N1Cc1ccc(Cl)cn1 (single isomer, unassigned) [Example 328] |  |  |  |  | IC50 [1]: 2.3 µM; MDM2 % at stated concentration (MDM2-p53 interaction; at 0.10 μM): 42%@0.10
CO[C@]1(c2ccc(Cl)cc2)c2ccc(C(C)(O)CN3CC(=O)NC3=O)cc2C(=O)N1Cc1ccc(Cl)cn1 (single isomer, unassigned) [Example 329] |  |  |  |  | IC50 [1]: 3 µM; MDM2 % at stated concentration (MDM2-p53 interaction; at 0.30 μM): 61%@0.30
[2H]C([2H])(O)C1(C([2H])([2H])O[C@]2(c3ccc(Cl)cc3)c3c(F)cc(C(C)(C)O)cc3C(=O)N2Cc2ncc(C#N)cn2)CC1 [Example 513, 2-{[(1R)-1-(4-chlorophenyl)-7-fluoro-1-({1-[hydroxydideuteromethyl]cyclopropyl}dideuteromethoxy)-5-(2-hydroxypropan-2-yl)-3-oxo-2,3-dihydro-1H-isoindol-2-yl]methyl}pyrimidine-5-carbonitrile] |  |  | 4 | 19 | 
CCC(O)(c1cc(F)c2c(c1)C(=O)N(Cc1ccc(C#N)cn1)[C@@]2(OCCOC)c1ccc(Cl)cc1)c1cn(C)cn1 (single isomer, unassigned) [Example 430] | 59 |  | 4 | 33 | 
CC[C@](O)(c1cc(F)c2c(c1)C(=O)N(Cc1ncc(C#N)cn1)[C@@]2(O[C@H]1CCOC1)c1ccc(Cl)cc1)C1(F)CCOCC1 [Example 508, 2-{[(1R)-1-(4-chlorophenyl)-7-fluoro-5-[(1S)-1-(4-fluorooxan-4-yl)-1-hydroxypropyl]-3-oxo-1-[(3S)-oxolan-3-yloxy]-2,3-dihydro-1H-isoindol-2-yl]methyl}pyrimidine-5-carbonitrile] |  |  | 9 |  | inhibition at 10 µM (SJSA-1 cells; Homo sapiens, SJSA-1, read-out: SJSA1 % inhibition at 10): 11%; inhibition at 0.1 µM (MDM2-p53 interaction): 17%
CCC(O)(c1cc(F)c2c(c1)C(=O)N(Cc1ncc(Cl)cn1)[C@@]2(OCC1(C(N)=O)CC1)c1ccc(Cl)cc1)c1cn(C)cn1 (stereo partly drawn) [Example 486, 1-({[(1R)-1-(4-chlorophenyl)-2-[(5-chloropyrimidin-2-yl)methyl]-7-fluoro-5-[1-hydroxy-1-(1-methyl-1H-imidazol-4-yl)propyl]-3-oxo-2,3-dihydro-1H-isoindol-1-yl]oxy}methyl)cyclopropane-1-carboxamide] | 59 | 0.051 |  | 10 | 
CCC(O)(c1cc(F)c2c(c1)C(=O)N(Cc1ncc(Cl)cc1O)[C@@]2(OCCO)c1ccc(Cl)cc1)c1cn(C)cn1 (stereo partly drawn) [Example 443, (3R)-2-[(5-chloro-3-hydroxypyridin-2-yl)methyl]-3-(4-chlorophenyl)-4-fluoro-6-[1-hydroxy-1-(1-methyl-1H-imidazol-4-yl)propyl]-3-(2-hydroxyethoxy)-2,3-dihydro-1H-isoindol-1-one] |  |  |  |  | IC50 (SJSA-1 cells; [5]): 0.093 µM; inhibition at 10 µM (SN40R2 cells; [6]): 3%; IC50 ([2]; read-out: SN40R2 IC50 (μM)): 38 µM
CC(C)(O)c1cc(F)c2c(c1)C(=O)N(Cc1ccc(Cl)cc1)[C@@]2(OCC1(CO)CC1)c1ccc(Cl)cc1 [Example 2, (3R)-3-(4-chlorophenyl)-2-[(4-chlorophenyl)methyl]-4-fluoro-3-{[1-(hydroxymethyl)cyclopropyl]methoxy}-6-(2-hydroxypropan-2-yl)-2,3-dihydro-1H-isoindol-1-one] |  |  |  |  | IC50 ([2]; 72 h, read-out: SN40R2 IC50 (μM) (Protocol A)): 17 µM
CCC(O)(c1cc(F)c2c(c1)C(=O)N(Cc1ncc(Cl)cn1)[C@@]2(OCC1(CO)CC1)c1ccc(Cl)cc1)c1cn(C)cn1 (single isomer, unassigned) [Example 476] |  | 0.6 | 4 |  | inhibition at 0.03 µM (MDM2-p53 interaction): 51%
CCC(O)(c1cc(F)c2c(c1)C(=O)N(Cc1ccc(C#N)cn1)[C@@]2(O[C@H]1CCOC1)c1ccc(Cl)cc1)C1(F)CCOCC1 (stereo partly drawn) [Example 446, 6-{[(1R)-1-(4-chlorophenyl)-7-fluoro-5-[1-(4-fluorooxan-4-yl)-1-hydroxypropyl]-3-oxo-1-[(3S)-oxolan-3-yloxy]-2,3-dihydro-1H-isoindol-2-yl]methyl}pyridine-3-carbonitrile] |  | 0.023 |  |  | IC50 ([2]; read-out: SN40R2 IC50 (μM)): 29 µM
CO[C@]1(c2ccc(Cl)cc2)c2ccc(C(C)(O)CN3CCNC3=O)cc2C(=O)N1Cc1ccc(Cl)cn1 (single isomer, unassigned) [Example 157] |  |  |  |  | IC50 [1]: 6.4 µM; MDM2 % at stated concentration (MDM2-p53 interaction; at 0.30 μM): 39%@0.30
CCC(O)(c1cc(F)c2c(c1)C(=O)N(Cc1ncc(Cl)cn1)[C@@]2(OCCO)c1ccc(Cl)cc1)[C@H]1CC[C@H](O)CC1 (single isomer, unassigned) [Example 517] | 82 | 0.01 |  | 26 | 
CCC(O)(CN1CCNCC1)c1cc(F)c2c(c1)C(=O)N(Cc1ncc(Cl)cn1)[C@@]2(OCC1(F)COC1)c1ccc(Cl)cc1 (single isomer, unassigned) [Example 538] |  | 2.2 | 43 |  | inhibition at 0.03 µM (MDM2-p53 interaction): 44%
CN1CCC(C(C)(O)c2cc(F)c3c(c2)C(=O)N(Cc2ncc(Cl)cn2)[C@@]3(OCC2(CO)CC2)c2ccc(Cl)cc2)CC1 (single isomer, unassigned) [Example 554] | 74 |  | 11 | 46 | 
CCC(O)(c1cc(F)c2c(c1)C(=O)N(Cc1ncc(C#N)cn1)[C@@]2(OCC1(C#N)CC1)c1ccc(Cl)cc1)c1cn(C)cn1 (single isomer, unassigned) [Example 462] | 80 |  | 4 | 37 | 
CCC(O)(CN1CCNCC1)c1cc(F)c2c(c1)C(=O)N(Cc1ncc(Cl)cn1)[C@@]2(OCC1(C#N)CC1)c1ccc(Cl)cc1 (single isomer, unassigned) [Example 536] | 64 | 0.13 | 46 |  | 
CO[C@]1(c2ccc(Cl)cc2)c2ccc(C(C)(O)CN3CC(=O)NC3=O)cc2C(=O)N1Cc1ccc(Cl)cn1 (single isomer, unassigned) [Example 330] |  |  |  |  | IC50 [1]: 7.1 µM; MDM2 % at stated concentration (MDM2-p53 interaction; at 0.30 μM): 36%@0.30
CO[C@]1(c2ccc(Cl)cc2)c2ccc(C(C)(O)CN3CCOCC3=O)cc2C(=O)N1Cc1ccc(Cl)cn1 (single isomer, unassigned) [Example 327] |  |  |  |  | IC50 [1]: 9.3 µM; MDM2 % at stated concentration (MDM2-p53 interaction; at 0.30 μM): 42%@0.30

More lines, main results first:

inhibition at 0.001 µM (MDM2-p53 interaction) [%] | IC50 (SJSA-1 cells; [4]) [µM] | SMILES | inhibition at 10 µM (SN40R2 cells; [3]) [%] | inhibition at 50 µM [2] [%] | also measured
79 |  | CCC(O)(c1cc(F)c2c(c1)C(=O)N(Cc1ncc(C#N)cn1)[C@@]2(OCCO)c1ccc(Cl)cc1)[C@H]1CC[C@H](O)CC1 (stereo partly drawn) [Example 510, 2-{[(1R)-1-(4-chlorophenyl)-7-fluoro-5-{1-hydroxy-1-[trans-4-hydroxycyclohexyl]propyl}-1-(2-hydroxyethoxy)-3-oxo-2,3-dihydro-1H-isoindol-2-yl]methyl}pyrimidine-5-carbonitrile] | 9 | 5 | 
71 | 0.022 | CCC(O)(c1cc(F)c2c(c1)C(=O)N(Cc1ncc(Cl)cn1)[C@@]2(O[C@H]1CCOC1)c1ccc(Cl)cc1)c1cn(C)cn1 (single isomer, unassigned) [Example 475] |  | 46 | 
87 |  | CC[C@@](O)(c1cc(F)c2c(c1)C(=O)N(Cc1ncc(C#N)cn1)[C@@]2(O[C@H]1CCOC1)c1ccc(Cl)cc1)C1CCC(O)CC1 (stereo partly drawn) [Example 503, 2-{[(1R)-1-(4-chlorophenyl)-7-fluoro-5-{1-hydroxy-1-[trans-4-hydroxycyclohexyl]propyl}-3-oxo-1-[(3S)-oxolan-3-yloxy]-2,3-dihydro-1H-isoindol-2-yl]methyl}pyrimidine-5-carbonitrile] | 13 |  | IC50 (SJSA-1 cells; [5]): 0.011 µM
48 | 0.16 | CCC(O)(c1cc(F)c2c(c1)C(=O)N(Cc1ccc(C#N)nc1)[C@@]2(O[C@H]1CCOC1)c1ccc(Cl)cc1)c1cn(C)cn1 (single isomer, unassigned) [Example 431] | 5 | 39 | 
 | 2.8 | CCC(O)(c1cc(F)c2c(c1)C(=O)N(Cc1ccc(C#N)cn1)[C@@]2(O[C@H]1CCOC1)c1ccc(Cl)cc1)c1ccn(C)n1 (single isomer, unassigned) [Example 335] | 7 |  | inhibition at 0.1 µM (MDM2-p53 interaction): 51%
 | 1.8 | CCC(O)(c1cc(F)c2c(c1)C(=O)N(Cc1ncc(Cl)cn1)[C@@]2(O[C@H]1CCOC1)c1ccc(Cl)cc1)C1(F)CCNCC1 (single isomer, unassigned) [Example 540] | 62 |  | inhibition at 0.03 µM (MDM2-p53 interaction): 33%
 | 1.3 | CCC(O)(c1cc(F)c2c(c1)C(=O)N(Cc1ncc(Cl)cn1)[C@@]2(O[C@H]1CCOC1)c1ccc(Cl)cc1)c1cn(C)cn1 (single isomer, unassigned) [Example 474] | 12 |  | inhibition at 0.03 µM (MDM2-p53 interaction): 38%
81 |  | CC[C@@](O)(c1cc(F)c2c(c1)C(=O)N(Cc1ncc(C#N)cn1)[C@@]2(O[C@H]1CCOC1)c1ccc(Cl)cc1)C1CCN(C)CC1 [Example 557, 2-{[(1R)-1-(4-chlorophenyl)-7-fluoro-5-[(1S)-1-hydroxy-1-(1-methylpiperidin-4-yl)propyl]-3-oxo-1-[(3S)-oxolan-3-yloxy]-2,3-dihydro-1H-isoindol-2-yl]methyl}pyrimidine-5-carbonitrile] | 6 |  | inhibition at 10 µM [2, 6]: 37%
